Data as given in patent publication US20200017496A1 (priority 2017, published 2020).
Where two headings read alike, the source gives them in different places.

What was measured:
[1] = test system: Escherichia coli (ECO) isolates; test: MIC of compounds alone and combined with antibacterials, broth microdilution (CLSI); type: cell-based; conditions: Escherichia coli
How it was run: (§1)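 First, log-phase suspensions are brought to a final 5·10^5 CFU/mL in cation-adjusted Mueller-Hinton broth. Then plates with compound, antibacterial, or both incubate 16-20 h at 35° C under ambient air. Finally, visual inspection gives the lowest growth-preventing concentration for each agent.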

[2] = test system: Enterobacter cloacae (ECL) isolates; test: as above; type: cell-based
How it was run: as §1

With `C=CC1=C(C(=O)O)N2C(=O)[C@@H](NC(=O)/C(=N\OCC(=O)O)c3csc(N)n3)[C@H]2SC1` [FIX, Cefixime] the MIC ([1]; ECO 190457, alone, read-out: MIC) was 128 µg/mL, the MIC ([1]; ECO UFR16, alone, read-out: MIC) was greater than 128 µg/mL and the MIC ([1]; ECO UFR20, alone) was 512 µg/mL. It also gave an MIC ([1]; ECO UFR209, alone, read-out: MIC) of 1020 µg/mL, an MIC ([1]; strain ECO 4133 (TEM-30, OXA-1), ATB alone) of 0.5 µg/mL and an MIC ([1]; strain ECO 4133 (TEM-30, OXA-1), CLA @ 4 μg/ml+ ATB) of 0.5 µg/mL. It also gave an MIC ([1]; strain ECO 5302 (TEM-1, OXA-1), ATB alone) of 0.5 µg/mL, an MIC ([1]; strain ECO 5302 (TEM-1, OXA-1), CLA @ 4 μg/ml+ ATB) of 0.5 µg/mL and an MIC ([1]; strain ECO 131119 (TEM-1, OXA-48), ATB alone) of no more than 0.25 µg/mL. The MIC ([1]; strain ECO 131119 (TEM-1, OXA-48), CLA @ 4 μg/ml+ ATB) was no more than 0.25 µg/mL, the MIC ([1]; strain ECO 180070 (TEM-1, CTX-M-15), ATB alone, read-out: MIC) was 128 µg/mL and the MIC ([1]; strain ECO 190314 (CTX-M-1), ATB alone) was 16 µg/mL. The MIC ([1]; strain ECO 190317 (TEM-1, SHV-12, CTX-M-15, OXA-1), ATB alone, read-out: MIC) was greater than 128 µg/mL, the MIC ([1]; strain ECO 190317 (TEM-1, SHV-12, CTX-M-15, OXA-1), CLA @ 4 μg/ml+ ATB) was 0.5 µg/mL and the MIC ([1]; strain ECO 190457 (CTX-M-15, OXA-1), ATB alone, read-out: MIC) was 128 µg/mL. For the same compound, the MIC ([1]; strain ECO 190457 (CTX-M-15, OXA-1), CLA @ 4 μg/ml+ ATB) was 0.5 µg/mL, the MIC ([1]; strain ECO 190549 (CTX-M-1), ATB alone) was 16 µg/mL and the MIC ([1]; strain ECO 190549 (CTX-M-1), CLA @ 4 μg/ml+ ATB) was 0.5 µg/mL. The MIC ([1]; strain ECO 200159 (TEM-1, CTX-M-14), ATB alone) was 8 µg/mL, the MIC ([1]; strain ECO 200159 (TEM-1, CTX-M-14), CLA @ 4 μg/ml+ ATB) was no more than 0.25 µg/mL and the MIC ([1]; strain ECO 200259 (CTX-M-14), ATB alone) was 8 µg/mL. The MIC ([1]; strain ECO 200259 (CTX-M-14), CLA @ 4 μg/ml+ ATB) was no more than 0.25 µg/mL, the MIC ([1]; strain ECO 200344 (CTX-M-1), CLA @ 4 μg/ml+ ATB) was 0.5 µg/mL and the MIC ([1]; strain ECO 260096 (CTX-M-132), ATB alone, read-out: MIC) was greater than 128 µg/mL. For the same compound, the MIC ([1]; strain ECO 260096 (CTX-M-132), CLA @ 4 μg/ml+ ATB) was 1 µg/mL, the MIC ([1]; strain ECO 260304 (CTX-M-15), CLA @ 4 μg/ml+ ATB) was 0.5 µg/mL and the MIC ([1]; strain ECO 260508 (TEM-1, CTX-M-15, OXA-1), ATB alone, read-out: MIC) was greater than 128 µg/mL. The MIC ([1]; strain ECO 260508 (TEM-1, CTX-M-15, OXA-1), CLA @ 4 μg/ml+ ATB) was 0.5 µg/mL, the MIC ([1]; strain ECO RGN238 (OXA-1), ATB alone) was no more than 0.25 µg/mL and the MIC ([1]; strain ECO RGN238 (OXA-1), CLA @ 4 μg/ml+ ATB) was no more than 0.25 µg/mL. The MIC ([1]; strain ECO UFR15 (TEM-1, OXA-48), ATB alone) was 1 µg/mL, the MIC ([1]; strain ECO UFR15 (TEM-1, OXA-48), CLA @ 4 μg/ml+ ATB) was 1 µg/mL and the MIC ([1]; strain ECO UFR16 (TEM-1, CTX-M-15, OXA-1, OXA-48), ATB alone, read-out: MIC) was greater than 128 µg/mL. For the same compound, the MIC ([1]; strain ECO UFR16 (TEM-1, CTX-M-15, OXA-1, OXA-48), CLA @ 4 μg/ml+ ATB) was 4 µg/mL, the MIC ([1]; strain ECO UFR17 (TEM-1, CTX-M-15, CMY-2, OXA-1, OXA-181), ATB alone, read-out: MIC) was greater than 128 µg/mL and the MIC ([1]; strain ECO UFR17 (TEM-1, CTX-M-15, CMY-2, OXA-1, OXA-181), CLA @ 4 μg/ml+ ATB, read-out: MIC) was greater than 128 µg/mL. For the same compound, the MIC ([1]; strain ECO UFR18 (CTX-M-15, OXA-204), ATB alone, read-out: MIC) was greater than 128 µg/mL, the MIC ([1]; strain ECO UFR18 (CTX-M-15, OXA-204), CLA @ 4 μg/ml+ ATB, read-out: MIC) was greater than 128 µg/mL and the MIC ([1]; strain ECO UFR19 (CTX-M-15, CMY-2, OXA-1, OXA-204), ATB alone, read-out: MIC) was greater than 128 µg/mL. For the same compound, the MIC ([1]; strain ECO UFR19 (CTX-M-15, CMY-2, OXA-1, OXA-204), CLA @ 4 μg/ml+ ATB, read-out: MIC) was greater than 128 µg/mL, the MIC ([1]; strain ECO UFR20 (SHV-1, CTX-M-15, OXA-1, OXA-232), ATB alone) was 512 µg/mL and the MIC ([1]; strain ECO UFR20 (SHV-1, CTX-M-15, OXA-1, OXA-232), CLA @ 4 μg/ml+ ATB, read-out: MIC) was greater than 128 µg/mL. For the same compound, the MIC ([1]; strain ECO UFR61O (TEM-1, KPC-2), CLA @ 4 μg/ml+ ATB, read-out: MIC) was 32 µg/mL, the MIC ([1]; strain ECO UFR62 (TEM-1, CTX-M-9, KPC-2), ATB alone, read-out: MIC) was 128 µg/mL and the MIC ([1]; strain ECO UFR62 (TEM-1, CTX-M-9, KPC-2), CLA @ 4 μg/ml+ ATB, read-out: MIC) was 32 µg/mL. For the same compound, the MIC ([1]; strain ECO UFR74 (SHV-1, DHA-1), ATB alone, read-out: MIC) was greater than 128 µg/mL, the MIC ([1]; strain ECO UFR74 (SHV-1, DHA-1), CLA @ 4 μg/ml+ ATB, read-out: MIC) was greater than 128 µg/mL and the MIC ([1]; strain ECO UFR86 (ompC-, ompF-), ATB alone, read-out: MIC) was 2 µg/mL. The MIC ([1]; strain ECO UFR86 (ompC-, ompF-), CLA @ 4 μg/ml+ ATB, read-out: MIC) was 2 µg/mL, the MIC ([1]; strain ECO UFR174 (TEM-1, KPC-2, OXA-1), ATB alone) was 8 µg/mL and the MIC ([1]; strain ECO UFR175 (TEM-1, KPC-2, OXA-9), ATB alone) was 64 µg/mL. It also gave an MIC ([1]; strain ECO UFR175 (TEM-1, KPC-2, OXA-9), CLA @ 4 μg/ml+ ATB) of 16 µg/mL, an MIC ([1]; strain ECO UFR176 (KPC-3, OXA-9*), ATB alone) of 64 µg/mL and an MIC ([1]; strain ECO UFR184 (CTX-M-15, CMY-4, OXA-1, OXA-204), ATB alone, read-out: MIC) greater than 128 µg/mL. The MIC ([1]; strain ECO UFR184 (CTX-M-15, CMY-4, OXA-1, OXA-204), CLA @ 4 μg/ml+ ATB, read-out: MIC) was greater than 128 µg/mL, the MIC ([1]; strain ECO UFR185 (OXA-48), ATB alone, read-out: MIC) was greater than 128 µg/mL and the MIC ([1]; strain ECO UFR185 (OXA-48), CLA @ 4 μg/ml+ ATB, read-out: MIC) was greater than 128 µg/mL. It also gave an MIC ([1]; strain ECO UFR186 (TEM-1, CTX-M-14, OXA-48), CLA @ 4 μg/ml+ ATB) of 8 µg/mL, an MIC ([1]; strain ECO UFR189 (TEM-1, CTX-M-15, OXA-48), ATB alone, read-out: MIC) greater than 128 µg/mL and an MIC ([1]; strain ECO UFR189 (TEM-1, CTX-M-15, OXA-48), CLA @ 4 μg/ml+ ATB) of 4 µg/mL. It also gave an MIC ([1]; strain ECO UFR190 (CTX-M-24, OXA-48), ATB alone) of 64 µg/mL, an MIC ([1]; strain ECO UFR190 (CTX-M-24, OXA-48), CLA @ 4 μg/ml+ ATB) of 8 µg/mL and an MIC ([1]; strain ECO UFR191 (TEM-1, CTX-M-24, OXA-48), ATB alone, read-out: MIC) greater than 128 µg/mL. For the same compound, the MIC ([1]; strain ECO UFR191 (TEM-1, CTX-M-24, OXA-48), CLA @ 4 μg/ml+ ATB) was 4 µg/mL, the MIC ([1]; strain ECO UFR207 (CTX-M-15), ATB alone, read-out: MIC) was greater than 128 µg/mL and the MIC ([1]; strain ECO UFR207 (CTX-M-15), CLA @ 4 μg/ml+ ATB) was 1 µg/mL. It also gave an MIC ([1]; strain ECO UFR208 (SHV-12), ATB alone, read-out: MIC) greater than 128 µg/mL, an MIC ([1]; strain ECO UFR208 (SHV-12), CLA @ 4 μg/ml+ ATB, read-out: MIC) greater than 128 µg/mL and an MIC ([1]; strain ECO UFR209 (TEM-1, CTX-M-15), ATB alone, read-out: MIC) of 1020 µg/mL. It also gave an MIC ([1]; strain ECO UFR209 (TEM-1, CTX-M-15), CLA @ 4 μg/ml+ ATB) of 1 µg/mL, an MIC ([1]; strain ECO UFR210 (SHV-12), CLA @ 4 μg/ml+ ATB) of 0.5 µg/mL and an MIC ([1]; strain ECO UFR211 (TEM-24), ATB alone, read-out: MIC) greater than 128 µg/mL. It also gave an MIC ([1]; strain ECO UFR212 (CMY-2), ATB alone, read-out: MIC) greater than 128 µg/mL, an MIC ([1]; strain ECO UFR212 (CMY-2), CLA @ 4 μg/ml+ ATB, read-out: MIC) greater than 128 µg/mL and an MIC ([1]; strain ECO UFR218 (TEM-1, SHV-1, CTX-M-15), ATB alone, read-out: MIC) greater than 128 µg/mL. For the same compound, the MIC ([1]; strain ECO UFR218 (TEM-1, SHV-1, CTX-M-15), CLA @ 4 μg/ml+ ATB) was 1 µg/mL, the “MIC ATB in combination” value ([2]; ECL 2185D, AF1 @ 4 μg/mL) was greater than 128 µg/mL and the “MIC ATB in combination” value ([2]; ECL 2185D, AF1 @ 8 μg/mL) was 64 µg/mL. For the same compound, the “MIC ATB in combination” value ([2]; ECL 190310, AF1 @ 4 μg/mL) was 64 µg/mL, the “MIC ATB in combination” value ([2]; ECL 190310, AF1 @ 8 μg/mL) was 32 µg/mL and the “MIC ATB in combination” value ([2]; ECL 190408, AF1 @ 4 μg/mL) was 0.5 µg/mL. For the same compound, the “MIC ATB in combination” value ([2]; ECL 190408, AF1 @ 8 μg/mL) was 0.25 µg/mL.
